Structures are written as SMILES.

For the assay, the system named is NFκB. The settings on record: HeLa cells; FIG. 29.

In the case of `NNc1nncc2ccccc12` [Hydralazine], the “Concentration of maximal NFκB activation” value was 10 µg/mL.

Values taken from US9821024B2, “Immunomodulatory compositions” (Sigmoid Pharma Limited, priority 2010, dated 2017).
